Measured values: patent US9353107B2 (Aurigene Discovery Technologies Limited, priority 2012, dated 2016)

Molecular target: T1, recombinant human ALK enzyme (ALK WT) (Homo sapiens, UniProt Q9UM73)
T1 construct: purchased Carna Biosciences 08-518
Assay: ALK WT cell free enzymatic assay (TR-FRET)
Format: biochemical
Settings: 1 μM ATP; for IC50: 10 point dose response; for inhibition at 0.1 µM: compound at 100 nM; for inhibition at 0.1 µM / inhibition at 1 µM: 30 min pre-incubation; for inhibition at 1 µM: compound at 1 μM
How it was run: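 Read-out is TR-FRET (665 nm/615 nm ratio) using an Eu-labeled anti-phosphotyrosine antibody. Compound is pre-incubated 30 min with recombinant human ALK, then reacted 30 min with 1 μM ATP and 40 nM Poly GT substrate. Values are percent inhibition at 100 nM and 1 μM, plus IC50 from 10-point variable-slope regression.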

T1 sequence (Q9UM73 1058-1620 limits assumed): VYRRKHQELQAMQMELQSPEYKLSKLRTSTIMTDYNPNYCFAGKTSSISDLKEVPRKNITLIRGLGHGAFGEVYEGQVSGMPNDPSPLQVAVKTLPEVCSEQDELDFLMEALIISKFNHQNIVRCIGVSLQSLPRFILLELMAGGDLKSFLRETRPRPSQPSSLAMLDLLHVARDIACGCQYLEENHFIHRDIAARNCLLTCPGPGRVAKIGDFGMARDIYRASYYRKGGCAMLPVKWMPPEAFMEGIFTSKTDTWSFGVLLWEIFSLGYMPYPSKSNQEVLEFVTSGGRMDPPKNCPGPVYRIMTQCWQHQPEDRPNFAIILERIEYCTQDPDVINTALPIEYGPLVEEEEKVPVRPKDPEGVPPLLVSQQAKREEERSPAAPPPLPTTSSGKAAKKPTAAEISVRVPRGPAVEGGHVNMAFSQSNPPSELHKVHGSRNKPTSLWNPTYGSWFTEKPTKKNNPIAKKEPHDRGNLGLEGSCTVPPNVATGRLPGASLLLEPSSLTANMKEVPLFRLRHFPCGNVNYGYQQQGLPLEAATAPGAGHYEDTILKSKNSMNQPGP

Structure (SMILES)	IC50	inhibition at 0.1 µM	inhibition at 1 µM
O=C(C1CC1)N1CCN(c2ccc(-c3cnc4[nH]cc(-c5cnn(Cc6cccc(F)c6)c5)c4c3)cn2)CC1 [Example 157, Cyclopropyl(4-(5-(3-(1-(3-fluorobenzyl)-1H-pyrazol-4-yl)-1H-pyrrolo[2,3-b]pyridin-5-yl)pyridin-2-yl)piperazin-1-yl)methanone]	< 50 nM	77%	93%
CS(=O)(=O)N1CCN(c2ccc(-c3cnc4[nH]cc(-c5cnn(Cc6cccc(F)c6)c5)c4c3)cn2)CC1 [Example 158, 3-(1-(3-fluorobenzyl)-1H-pyrazol-4-yl)-5-(6-(4-(methylsulfonyl)piperazin-1-yl)pyridin-3-yl)-1H-pyrrolo[2,3-b]pyridine]	< 50 nM	85%	94%
Fc1cccc(Cn2cc(-c3c[nH]c4ncc(-c5ccc(C6CCNCC6)nc5)cc34)cn2)c1 [Example 159, 3-(1-(3-fluorobenzyl)-1H-pyrazol-4-yl)-5-(6-(piperidin-4-yl)pyridin-3-yl)-1H-pyrrolo[2,3-b]pyridine]	< 50 nM	91%	100%
O=C(CC1CC1)N1CCN(c2ccc(-c3cnc4[nH]cc(-c5cnn(Cc6cccc(F)c6)c5)c4c3)cn2)CC1 [Example 160, 2-cyclopropyl-1-(4-(5-(3-(1-(3-fluorobenzyl)-1H-pyrazol-4-yl)-1H-pyrrolo[2,3-b]pyridin-5-yl)pyridin-2-yl)piperazin-1-yl)ethanone]	50 to 250 nM	20%	84%
Cc1nn(Cc2cccc(F)c2)c(C)c1-c1c[nH]c2ncc(-c3ccc(N4CCN(C[C@H](C)O)CC4)nc3)cc12 [Example 161, (2S)-1-(4-(5-(3-(1-(3-fluorobenzyl)-3,5-dimethyl-1H-pyrazol-4-yl)-1H-pyrrolo[2,3-b]pyridin-5-yl)pyridin-2-yl)piperazin-1-yl)propan-2-ol]	< 50 nM	86%	97%
Cc1c(-c2c[nH]c3ncc(-c4ccc(N5CCN(C[C@H](C)O)CC5)nc4)cc23)cnn1Cc1cccc(F)c1 [Example 162, (S)-1-(4-(5-(3-(1-(3-fluorobenzyl)-5-methyl-1H-pyrazol-4-yl)-1H-pyrrolo[2,3-b]pyridin-5-yl)pyridin-2-yl)piperazin-1-yl)propan-2-ol]	< 50 nM	75%	96%
C[C@H](O)CN1CCN(c2cnc(-c3cnc4[nH]cc(-c5cnn(Cc6cccc(F)c6)c5)c4c3)cn2)CC1 [Example 163, (S)-1-(4-(5-(3-(1-(3-fluorobenzyl)-1H-pyrazol-4-yl)-1H-pyrrolo[2,3-b]pyridin-5-yl)pyrazin-2-yl)piperazin-1-yl)propan-2-ol]	< 50 nM	88%	98%
C[C@H](O)CN1CCCN(c2ccc(-c3cnc4[nH]cc(-c5cnn(Cc6cccc(F)c6)c5)c4c3)cc2)CC1 [Example 164, (S)-1-(4-(4-(3-(1-(3-fluorobenzyl)-1H-pyrazol-4-yl)-1H-pyrrolo[2,3-b]pyridin-5-yl)phenyl)-1,4-diazepan-1-yl)propan-2-ol]	< 50 nM	96%	99%
Cc1c(-c2c[nH]c3ncc(-c4ccc(C5CCNCC5)c(F)c4)cc23)cnn1Cc1cccc(F)c1 [Example 165, 5-(3-fluoro-4-(piperidin-4-yl)phenyl)-3-(1-(3-fluorobenzyl)-5-methyl-1H-pyrazol-4-yl)-1H-pyrrolo[2,3-b]pyridine]	< 50 nM	99%	100%
Cc1nn(Cc2cccc(F)c2)cc1-c1c[nH]c2ncc(-c3ccc(C4CCNCC4)c(F)c3)cc12 [Example 166, 5-(3-fluoro-4-(piperidin-4-yl)phenyl)-3-(1-(3-fluorobenzyl)-3-methyl-1H-pyrazol-4-yl)-1H-pyrrolo[2,3-b]pyridine]	< 50 nM	90%	98%
Fc1cc(-c2cnc3[nH]cc(-c4cnn(CCc5ccccc5)c4)c3c2)ccc1C1CCNCC1 [Example 167, 5-(3-fluoro-4-(piperidin-4-yl)phenyl)-3-(1-phenethyl-1H-pyrazol-4-yl)-1H-pyrrolo[2,3-b]pyridine]	50 to 250 nM	69%	97%
Fc1cc(-c2cnc3[nH]cc(-c4ccn(CCc5ccccc5)n4)c3c2)ccc1C1CCNCC1 [Example 168, 5-(3-fluoro-4-(piperidin-4-yl)phenyl)-3-(1-phenethyl-1H-pyrazol-3-yl)-1H-pyrrolo[2,3-b]pyridine]	> 250 nM	23%	71%
Fc1cc(F)cc(Cn2cc(-c3c[nH]c4ncc(-c5ccc(C6CCNCC6)c(F)c5)cc34)cn2)c1 [Example 169, 3-(1-(3,5-difluorobenzyl)-1H-pyrazol-4-yl)-5-(3-fluoro-4-(piperidin-4-yl)phenyl)-1H-pyrrolo[2,3-b]pyridine]	< 50 nM	99%	100%
CN1CCC(c2ccc(-c3cnc4[nH]cc(-c5cnn(Cc6cccc(F)c6)c5)c4c3)cc2F)CC1 [Example 170, 5-(3-fluoro-4-(1-methylpiperidin-4-yl)phenyl)-3-(1-(3-fluorobenzyl)-1H-pyrazol-4-yl)-1H-pyrrolo[2,3-b]pyridine]	< 50 nM	98%	100%
c1cc(Cn2cc(-c3c[nH]c4ncc(-c5ccc(C6CCNCC6)cc5)cc34)cn2)ccn1 [Example 171, 5-(4-(piperidin-4-yl)phenyl)-3-(1-(pyridin-4-ylmethyl)-1H-pyrazol-4-yl)-1H-pyrrolo[2,3-b]pyridine]	50 to 250 nM	41%	88%
Fc1cccc(Cn2cc(-c3c[nH]c4ncc(-c5ccc(N6CCNCC6)c(F)c5)cc34)cn2)c1 [Example 172, 5-(3-fluoro-4-(piperazin-1-yl)phenyl)-3-(1-(3-fluorobenzyl)-1H-pyrazol-4-yl)-1H-pyrrolo[2,3-b]pyridine]	< 50 nM	99%	100%
Fc1cccc(Cn2cc(-c3c[nH]c4ncc(-c5cnc(N6CCNCC6)c(F)c5)cc34)cn2)c1 [Example 173, 5-(5-fluoro-6-(piperazin-1-yl)pyridin-3-yl)-3-(1-(3-fluorobenzyl)-1H-pyrazol-4-yl)-1H-pyrrolo[2,3-b]pyridine]	< 50 nM	92%	98%
COc1cc(-c2cnc3[nH]cc(-c4cnn(Cc5cccc(F)c5)c4)c3c2)cnc1N1CCNCC1 [Example 174, 3-(1-(3-fluorobenzyl)-1H-pyrazol-4-yl)-5-(5-methoxy-6-(piperazin-1-yl)pyridin-3-yl)-1H-pyrrolo[2,3-b]pyridine]	< 50 nM	96%	100%
Cc1nn(Cc2cccc(F)c2)c(C)c1-c1c[nH]c2ncc(-c3ccc(C4CCNCC4)c(F)c3)cc12 [Example 175, 5-(3-fluoro-4-(piperidin-4-yl)phenyl)-3-(1-(3-fluorobenzyl)-3,5-dimethyl-1H-pyrazol-4-yl)-1H-pyrrolo[2,3-b]pyridine]	< 50 nM	96%	100%
CS(=O)(=O)Nc1cc(-c2cnc3[nH]cc(-c4ccn(Cc5cc(F)cc(F)c5)n4)c3c2)ccc1C1CCNCC1 [Example 176, N-(5-(3-(1-(3,5-difluorobenzyl)-1H-pyrazol-3-yl)-1H-pyrrolo[2,3-b]pyridin-5-yl)-2-(piperidin-4-yl)phenyl)methanesulfonamide]	< 50 nM	86%	99%
COc1cc(-c2cnc3[nH]cc(-c4c(C)nn(Cc5cc(F)cc(F)c5)c4C)c3c2)cnc1N [Example 177, 5-(3-(1-(3,5-difluorobenzyl)-3,5-dimethyl-1H-pyrazol-4-yl)-1H-pyrrolo[2,3-b]pyridin-5-yl)-3-methoxypyridin-2-amine]	< 50 nM	96%	100%
COc1cc(-c2cnc3[nH]cc(-c4c(C)nn(Cc5cccc(F)c5)c4C)c3c2)cnc1N [Example 178, 5-(3-(1-(3-fluorobenzyl)-3,5-dimethyl-1H-pyrazol-4-yl)-1H-pyrrolo[2,3-b]pyridin-5-yl)-3-methoxypyridin-2-amine]	< 50 nM	94%	100%
CN1CCN(c2ncc(-c3cnc4[nH]cc(-c5cnn(Cc6cccc(F)c6)c5)c4c3)cc2F)CC1 [Example 179, 5-(5-fluoro-6-(4-methylpiperazin-1-yl)pyridin-3-yl)-3-(1-(3-fluorobenzyl)-1H-pyrazol-4-yl)-1H-pyrrolo[2,3-b]pyridine]	< 50 nM	92%	99%
C[C@@H](O)CN1CCN(c2ncc(-c3cnc4[nH]cc(-c5cnn(Cc6cccc(F)c6)c5)c4c3)cc2F)CC1 [Example 180, (R)-1-(4-(3-fluoro-5-(3-(1-(3-fluorobenzyl)-1H-pyrazol-4-yl)-1H-pyrrolo[2,3-b]pyridin-5-yl)pyridin-2-yl)piperazin-1-yl)propan-2-ol]	< 50 nM	93%	100%
NC(=O)CN1CCC(Cc2cccc(-c3cnc4[nH]cc(-c5cnn(Cc6cccc(F)c6)c5)c4c3)c2)CC1 [Example 184, 2-(4-(3-(3-(1-(3-fluorobenzyl)-1H-pyrazol-4-yl)-1H-pyrrolo[2,3-b]pyridin-5-yl)benzyl)piperidin-1-yl)acetamide]	< 50 nM	92%	100%
c1ccc(CCn2cc(-c3c[nH]c4ncc(-c5ccc(N6CCNCC6)cc5)cc34)cn2)cc1 [Example 185, 3-(1-phenethyl-1H-pyrazol-4-yl)-5-(4-(piperazin-1-yl)phenyl)-1H-pyrrolo[2,3-b]pyridine]		80%	86%
